Columns and labels:
Type in all cases: biochemical
[1] = test system: oxidoreductase enzyme derived from Rhizobium sp. GIN611; experiment: Deglycosylation activity for flavonoid glycoside substrates by MALDI mass spectrometry; conditions: flavonoid glycoside as substrate
Source text: After reacting using ginsenoside Rh2, ginsenoside F2, ginsenoside Rb1, ginsenoside Rb2, ginsenoside Rc, ginsenoside Rb3, ginsenoside F1, ginsenoside Re or the isoflavone daidzin as a substrate, followed by extraction by adding the same volume of ethyl acetate, the ethyl acetate layer was dried and then dissolved again in ethanol, which was subjected to activity measurement by MALDI mass spectrometry.
The oxidoreductase enzyme derived from Rhizobium sp. GIN611, whose expression was induced, was reacted with the flavonoid icariin, camelliaside A or camelliaside B as a substrate in the manner described above and activity was measured by MALDI mass spectrometry. Oxidation of galactose attached to camelliaside A and deglycosylation activity thereof were identified. Also, oxidation of xylose attached to camelliaside B and deglycosylation activity thereof were identified. That is to say, the enzyme was confirmed to show deglycosylation activity for sugars attached to the flavonoid-based aglycones and to capable of degrading not only glucose but also galactose and xylose by oxidizing them (see FIGS. 12 and 13).

[2] = test system: deglycosylating enzyme isolated from the selected Rhizobium sp. GIN611; experiment: Substrate specificity of deglycosylating enzyme isolated from Rhizobium sp. GIN611; conditions: ginsenoside as substrate
Source text: Investigation of the substrate specificity using a deglycosylating enzyme isolated from the selected Rhizobium sp. […] The inventors of the present disclosure have disrupted and centrifuged the microorganism and produced a cell extract comprising the active enzyme from a supernatant.

[3] = test system: oxidoreductase enzyme derived from Rhizobium sp. GIN611; experiment: Substrate specificity for glycone binding (α-/β-bonding); conditions: nitrophenyl glycoside used as substrate of the enzyme
Source text: Specificity of the enzyme for α-bonding and β-bonding was investigated using 4-nitrophenyl α-D-glucopyranoside, 4-nitrophenyl β-D-glucopyranoside, 4-nitrophenyl α-D-galactopyranoside and p-nitrophenyl β-D-galactopyranoside.

Structure (SMILES) | Relative activity (%) [3] | other results
C[C@@H]1O[C@@H](OC[C@H]2O[C@@H](Oc3c(-c4ccc(O)cc4)oc4cc(O)cc(O)c4c3=O)[C@H](O[C@@H]3O[C@H](CO)[C@H](O)[C@H](O)[C@H]3O)[C@@H](O)[C@@H]2O)[C@H](O)[C@H](O)[C@H]1O [camelliaside A, kaempferol 3-O-(2-O-galactopyranosyl-6-O-rhamnopyranosyl)glucopyranoside] |  | oxidation of attached sugar and deglycosylation activity [1]: identified
C[C@@H]1O[C@@H](OC[C@H]2O[C@@H](Oc3c(-c4ccc(O)cc4)oc4cc(O)cc(O)c4c3=O)[C@H](O[C@@H]3OC[C@@H](O)[C@H](O)[C@H]3O)[C@@H](O)[C@@H]2O)[C@H](O)[C@H](O)[C@H]1O [camelliaside B, kaempferol 3-O-(2-O-xylopyranosyl-6-O-rhamnopyranosyl)glucopyranoside] |  | oxidation of attached sugar and deglycosylation activity [1]: identified
CC(C)=CCC[C@](C)(O[C@@H]1O[C@H](CO)[C@@H](O)[C@H](O)[C@H]1O)[C@H]1CC[C@]2(C)[C@@H]1[C@H](O)C[C@@H]1[C@@]3(C)CC[C@H](O)C(C)(C)[C@@H]3CC[C@]12C [ginsenoside CK, 20-O-β-D-glucopyranosyl-20(S)-protopanaxadiol] |  | activity for substrate [2]: high activity
O=[N+]([O-])c1ccc(O[C@H]2O[C@H](CO)[C@H](O)[C@H](O)[C@H]2O)cc1 [p-Nitrophenyl α-D-galactopyranoside] | 201% | 
O=[N+]([O-])c1ccc(O[C@H]2O[C@H](CO)[C@@H](O)[C@H](O)[C@H]2O)cc1 [p-Nitrophenyl α-D-glucopyranoside] | 103% | 
O=[N+]([O-])c1ccc(O[C@@H]2O[C@H](CO)[C@H](O)[C@H](O)[C@H]2O)cc1 [p-Nitrophenyl β-D-galactopyranoside] | 400% | 
O=[N+]([O-])c1ccc(O[C@@H]2O[C@H](CO)[C@@H](O)[C@H](O)[C@H]2O)cc1 [p-Nitrophenyl β-D-glucopyranoside] | 100% | 

— patent US9394562B2, “Soil microorganism, novel oxidoreductase separated from the soil microorganism, gene encoding the oxidoreductase, and method for producing aglycones using the microorganism, the oxidoreductase and the gene” (AMOREPACIFIC CORPORATION, priority 2010, dated 2016)
